The values below come from paper PMC8938411, “Novel functional insights into a modified sugar-binding protein from Synechococcus MITS9220” (Scientific Reports, 2022).

The assay concerns the target T1, MsBP (modified sugar-binding protein, MITS9220_00117), zinc-bound Zn-MsBP.
T1 construct: Tat signal peptide removed, N-terminal hexahistidine tag with thrombin cleavage site (pET15-b)
As to the kind of experiment: ITC of purified MsBP pre-incubated with Zn2+ ([…]x molar excess); supported by DSF (TM […] °C with Zn and FBP). More on the design: species or system Synechococcus sp. MIT S9220.

Usually Kd stands for the concentration at which binding is half-saturated. Regarding `O=P(O)(O)OC[C@H]1OC(O)(COP(=O)(O)O)[C@@H](O)[C@@H]1O` (stereo partly shown) [FBP, fructose-1,6-bisphosphate], the Kd is 5.8 µM. That is a single-digit micromolar value.
